Measured values: patent US20260042764A1, “COMPOSITIONS AND METHODS FOR INHIBITION OF KRAS” (TheRas, Inc., priority 2022, published 2026)

Experiments:
[1] = target: T1, Avi-KRAS WT (1-169) GppNHp/RAF1 RBD-3xFLAG (52-151) (Homo sapiens, UniProt P01116); experiment: Raf1-KRAS WT-GppNHP disruption HTRF assay (Biological Example 1); assay type: binding
T1 construct: Avi-KRAS WT (1-169)
Summary of the method: (§1)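 Using HTRF, the loss of KRAS–effector RAF1 complex was quantified in 50 mM Tris pH 7.5 buffer with 100 mM NaCl and 0.1% BSA. The protein step and reagent step ran 1 h each at room temperature. Activity normalized with DMSO taken as 100%.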

SW620 cells (KRAS G12V) = experiment: Cell-based pERK HTRF assay in SW620 cell (Biological Example 4); details: pERK HTRF
Summary of the method: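 In SW620 cells grown in RPMI with 10% FBS, a 4 h compound treatment (0.25% DMSO, 9-point curve from 1 μM) preceded lysis. Phospho-ERK levels were then read by time-resolved FRET at 615 nm emission.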

[2] = target: T2, Avi-KRAS G12V (1-169) GppNHp/RAF1 RBD-3xFLAG (52-151) (Homo sapiens, UniProt P01116, G12V); experiment: Raf1-KRAS G12V-GppNHP disruption HTRF assay (Biological Example 1); assay type: binding
T2 construct: Avi-KRAS G12V (1-169)
Summary of the method: as §1

[3] = target: T3, Avi-KRAS G12R (1-169) GppNHp/RAF1 RBD-3xFLAG (52-151) (Homo sapiens, UniProt P01116, G12R); experiment: Raf1-KRAS G12R-GppNHP disruption HTRF assay (Biological Example 1); assay type: binding
T3 construct: Avi-KRAS G12R (1-169)
Summary of the method: as §1

[4] = Homo sapiens, SW-620, SW620 (KRAS G12V) cells
[5] = KRAS WT, GppNHp-loaded, Table 11
[6] = KRAS G12V, GppNHp-loaded, Table 11
[7] = KRAS G12R, GppNHp-loaded, Table 11
[8] = KRAS WT, GppNHp-loaded, class symbols
[9] = Homo sapiens, SW-620, SW620 (KRAS G12V) cells, class symbols
[10] = KRAS G12V, GppNHp-loaded, class symbols
[11] = KRAS G12R, GppNHp-loaded, class symbols

T3 sequence (P01116 1-169 isoform P01116-2 G12R): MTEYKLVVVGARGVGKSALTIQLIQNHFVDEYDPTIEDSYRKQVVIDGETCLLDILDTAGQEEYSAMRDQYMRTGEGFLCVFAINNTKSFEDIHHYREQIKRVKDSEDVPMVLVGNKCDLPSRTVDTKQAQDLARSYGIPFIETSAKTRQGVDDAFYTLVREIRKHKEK
T1 sequence (P01116 1-169 isoform P01116-2): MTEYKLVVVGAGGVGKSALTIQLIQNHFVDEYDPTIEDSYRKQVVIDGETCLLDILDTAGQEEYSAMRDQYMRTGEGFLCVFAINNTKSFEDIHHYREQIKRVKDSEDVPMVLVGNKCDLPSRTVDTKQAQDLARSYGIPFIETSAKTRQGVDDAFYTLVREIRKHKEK
T2 sequence (P01116 1-169 isoform P01116-2 G12V): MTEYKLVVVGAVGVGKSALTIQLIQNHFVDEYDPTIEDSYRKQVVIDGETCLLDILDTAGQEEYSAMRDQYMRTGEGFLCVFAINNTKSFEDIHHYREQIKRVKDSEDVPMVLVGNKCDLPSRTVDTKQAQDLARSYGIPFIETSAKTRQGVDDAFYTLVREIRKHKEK

IC50 ([1]; KRAS WT-GppNHp/RAF1 RBD HTRF) [nM] | IC50 (SW620 cells (KRAS G12V); [4]) [nM] | IC50 ([2]; KRAS G12V-GppNHp/RAF1 RBD HTRF) [nM] | IC50 ([3]; KRAS G12R-GppNHp/RAF1 RBD HTRF) [nM] | IC50 [1, 5] [nM] | IC50 [2, 6] [nM] | IC50 [3, 7] [nM] | SMILES | also measured
 | < 100 |  |  | 100 to 1000 | 100 to 1000 | 100 to 1000 | N#Cc1c(N)sc2c(F)ccc(-c3c(C(F)(F)F)cc4c(N5CC6CC5CO6)nc(OC[C@@]56CCCN5C[C@H](F)C6)nc4c3F)c12 (stereo partly drawn) [Compound 147] | 
 | < 100 |  |  | < 100 | 100 to 1000 | < 100 | CCC(=O)N1CC[C@@H](N(C)c2nc(OC[C@@]34CCCN3C[C@H](F)C4)nc3c(F)c(-c4ccc(F)c5sc(N)c(C#N)c45)c(C(F)(F)F)cc23)[C@H]1C [Compound 260] | 
 | < 100 |  |  | < 100 | 100 to 1000 | < 100 | C[C@@H]1[C@H](N(C)c2nc(OC[C@@]34CCCN3C[C@H](F)C4)nc3c(F)c(-c4ccc(F)c5sc(N)c(C#N)c45)c(C(F)(F)F)cc23)CCN1C(=O)C1CC1 [Compound 258] | 
< 100 | < 100 | < 100 | < 100 |  |  |  | CCN(c1nc(OC[C@@]23CCCN2C[C@H](F)C3)nc2c(F)c(-c3ccc(F)c4sc(N)c(C#N)c34)c(C(F)(F)F)cc12)[C@H]1C[C@H](C)N(C(C)=O)C1 [Compound 463] | 

The next lines start with the compound.

SMILES | IC50 ([1]; KRAS WT-GppNHp/RAF1 RBD HTRF) [nM] | IC50 (SW620 cells (KRAS G12V); [4]) [nM] | IC50 ([2]; KRAS G12V-GppNHp/RAF1 RBD HTRF) [nM] | IC50 ([3]; KRAS G12R-GppNHp/RAF1 RBD HTRF) [nM] | IC50 [1, 5] [nM] | IC50 [2, 6] [nM] | IC50 [3, 7] [nM] | also measured
CCN(c1nc(OC[C@@]23CCCN2C[C@H](F)C3)nc2c(F)c(-c3ccc(F)c4sc(N)c(C#N)c34)c(Cl)cc12)[C@@H]1CCN(C(=O)C2CC2)[C@@H]1C [Compound 337] | 100 to 1000 | < 100 | 100 to 1000 | 100 to 1000 |  |  |  | 
N#Cc1c(N)sc2c(F)ccc(-c3c(C(F)(F)F)cc4c(N5CCC[C@@H](O)C5)nc(OC[C@@]56CCCN5C[C@H](F)C6)nc4c3F)c12 [Compound 234] |  | < 100 |  |  | 100 to 1000 | 100 to 1000 | 100 to 1000 | 
CCN(c1nc(OC[C@@]23CCCN2C[C@H](F)C3)nc2c(F)c(-c3ccc(F)c4sc(N)c(C#N)c34)c(Cl)cc12)[C@@H]1CCN(C(C)=O)[C@@H]1C [Compound 323] | 100 to 1000 | < 100 | 100 to 1000 | 100 to 1000 |  |  |  | 
CCN(c1nc(OC[C@@]23CCCN2C[C@H](F)C3)nc2c(F)c(-c3ccc(F)c4sc(N)c(C#N)c34)c(C(F)(F)F)cc12)[C@H]1C[C@H](C)N(C(=O)[C@@H]2CC2(F)F)C1 (atropisomer, axis not shown) [Compound 751] |  |  |  |  |  |  |  | IC50 [1, 8]: 100 to 1000 nM; IC50 (SW620 cells (KRAS G12V); [9]): < 100 nM; IC50 [2, 10]: < 100 nM; IC50 [3, 11]: < 100 nM
CC(=O)N1CC[C@@H](N(C)c2nc(OC[C@@]34CCCN3C[C@H](F)C4)nc3c(F)c(-c4ccc(F)c5sc(N)c(C#N)c45)c(Cl)cc23)[C@H]1C [Compound 398] | 100 to 1000 | < 100 | 100 to 1000 | 100 to 1000 |  |  |  | 
CCN(c1nc(OC[C@@]23CCCN2C[C@H](F)C3)nc2c(F)c(-c3ccc(F)c4sc(N)c(C#N)c34)c(C(F)(F)F)cc12)[C@H]1CCN(C(=O)c2ncco2)C1 (atropisomer, axis not shown) [Compound 584] |  |  |  |  |  |  |  | IC50 [1, 8]: < 100 nM; IC50 (SW620 cells (KRAS G12V); [9]): < 100 nM; IC50 [2, 10]: < 100 nM; IC50 [3, 11]: < 100 nM
N#Cc1cnn2c1CN(c1nc(OC[C@@]34CCCN3C[C@H](F)C4)nc3c(F)c(-c4ccc(F)c5sc(N)c(C#N)c45)c(C(F)(F)F)cc13)CC2 [Compound 392] | 100 to 1000 | < 100 | 100 to 1000 | 100 to 1000 |  |  |  | 
CCN(c1nc(OCC23CCCN2CC(F)C3)nc2c(F)c(-c3ccc(F)c4sc(N)c(C#N)c34)c(C(F)(F)F)cc12)C1CC(C)N(C(=O)N2CC(F)C2)C1 (stereo not drawn) [Compound 759] |  |  |  |  |  |  |  | IC50 [1, 8]: < 100 nM; IC50 (SW620 cells (KRAS G12V); SW620 (KRAS G12V) cells, class symbols): < 100 nM; IC50 [2, 10]: < 100 nM; IC50 [3, 11]: < 100 nM
